Where two headings read alike, the source gives them in different places. Each block holds one molecule with its values, some of them ahead of it.
Assays:
[1] = tested on: TNKS1/2; settings: Figure 1; cited from earlier work
[2] = molecular target: T1, PARP10 (Homo sapiens, UniProt Q53GL7); assay: Cellular MARylation assay (immunoblot of PARP10 auto-MARylation); type: cell-based; settings: 10 μM, 16 h, HeLa cells
T1 construct: made in house
T1 sequence (Q53GL7 1-1025): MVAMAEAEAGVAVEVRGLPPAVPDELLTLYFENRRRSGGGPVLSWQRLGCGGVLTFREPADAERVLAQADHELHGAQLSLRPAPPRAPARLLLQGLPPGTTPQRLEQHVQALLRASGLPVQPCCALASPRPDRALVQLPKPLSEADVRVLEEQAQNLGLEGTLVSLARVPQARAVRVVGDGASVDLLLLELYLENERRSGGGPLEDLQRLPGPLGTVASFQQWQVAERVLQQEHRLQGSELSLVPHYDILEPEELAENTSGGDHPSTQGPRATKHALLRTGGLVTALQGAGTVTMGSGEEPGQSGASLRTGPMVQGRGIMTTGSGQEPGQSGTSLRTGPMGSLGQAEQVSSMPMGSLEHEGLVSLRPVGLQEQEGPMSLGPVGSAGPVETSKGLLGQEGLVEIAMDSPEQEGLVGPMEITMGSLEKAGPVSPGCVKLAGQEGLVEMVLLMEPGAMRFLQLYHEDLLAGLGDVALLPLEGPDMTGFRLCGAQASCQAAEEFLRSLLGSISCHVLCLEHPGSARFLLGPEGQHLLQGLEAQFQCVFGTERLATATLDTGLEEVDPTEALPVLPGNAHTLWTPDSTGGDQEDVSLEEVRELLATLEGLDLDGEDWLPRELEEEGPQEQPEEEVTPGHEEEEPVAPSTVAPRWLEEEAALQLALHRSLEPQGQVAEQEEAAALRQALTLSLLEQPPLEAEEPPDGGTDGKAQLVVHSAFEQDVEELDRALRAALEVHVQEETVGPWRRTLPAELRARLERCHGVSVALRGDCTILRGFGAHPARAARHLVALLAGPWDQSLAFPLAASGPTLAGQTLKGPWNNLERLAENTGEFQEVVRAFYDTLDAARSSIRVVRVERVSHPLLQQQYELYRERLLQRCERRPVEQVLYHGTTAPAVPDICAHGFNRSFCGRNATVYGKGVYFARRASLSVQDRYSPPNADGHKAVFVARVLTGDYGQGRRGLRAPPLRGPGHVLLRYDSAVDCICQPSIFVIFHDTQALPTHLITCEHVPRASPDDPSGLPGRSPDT
Procedure: Cells were lysed in RIPA lysis buffer [10 mM Tris pH 7.4; 150 mM NaCl; 1% NP-40; 1% desoxycholate; 0,1% SDS; protease inhibitor cocktail (Sigma-Aldrich) and 10 μM olaparib (Selleck Chemicals)], and lysates were analyzed via SDS-PAGE and immunoblotting using specific anti-PARP10 (Eurogentec),[93] anti-MAR/PAR (Cell Signaling, E6F6A, anti-poly/Mono-ADP-ribose antibody), and anti-α-tubulin (B 5-1-2, Sigma-Aldrich) antibodies.

[3] = tested on: PARP7; settings: Figure 1 ref 40; cited from earlier work
[4] = molecular target: T2, PARP15 (Homo sapiens, UniProt Q460N3); assay: biochemical; type: biochemical
T2 construct: made in house
T2 sequence (Q460N3 1-678): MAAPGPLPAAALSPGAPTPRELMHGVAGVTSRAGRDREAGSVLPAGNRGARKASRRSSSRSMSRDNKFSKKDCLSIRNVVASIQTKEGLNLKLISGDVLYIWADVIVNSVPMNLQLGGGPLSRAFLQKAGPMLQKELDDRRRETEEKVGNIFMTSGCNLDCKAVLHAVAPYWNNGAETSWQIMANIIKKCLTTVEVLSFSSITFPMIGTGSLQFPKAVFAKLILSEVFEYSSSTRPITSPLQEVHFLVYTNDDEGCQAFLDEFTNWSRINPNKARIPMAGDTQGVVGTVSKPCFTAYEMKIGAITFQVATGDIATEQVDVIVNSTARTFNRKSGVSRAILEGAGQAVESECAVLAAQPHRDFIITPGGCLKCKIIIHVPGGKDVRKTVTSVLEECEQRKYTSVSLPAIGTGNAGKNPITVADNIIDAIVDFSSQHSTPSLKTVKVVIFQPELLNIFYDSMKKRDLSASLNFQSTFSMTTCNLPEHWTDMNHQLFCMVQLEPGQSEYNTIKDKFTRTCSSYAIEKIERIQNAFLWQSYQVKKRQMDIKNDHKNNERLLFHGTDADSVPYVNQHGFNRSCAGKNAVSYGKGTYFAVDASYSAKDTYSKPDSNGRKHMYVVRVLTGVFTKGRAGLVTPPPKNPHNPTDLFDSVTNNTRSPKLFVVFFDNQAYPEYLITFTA

[5] = molecular target: T1, PARP10; assay: biochemical; type: biochemical
[6] = tested on: HEK293T cells; assay: Cell viability assay (colorimetric WST-1); type: cell-based, human; settings: HEK293T, 100, 50 and 10 μM, 24 h
Procedure: Cell viability was assessed by colorimetric WST-1 (Cellpro-Roche, Sigma-Aldrich) assay following manufacturer’s instructions. […] Also, DMSO and 10 mM hydroxyurea (Sigma) were used as internal controls for induced cell toxicity. […] Thereafter, WST-1 reagent was pipetted followed by 2 h incubation and absorbance measuring by a Tecan Infinite M1000 or a Tecan Spark (Tecan) plate reader. The assay was performed in triplicate and repeated at least three times. Data were normalized to DMSO control.

[7] = molecular target: T3, PARP2 (Homo sapiens, UniProt Q9UGN5); assay: biochemical; type: biochemical; settings: > = less than 50% inhibition at highest concentration; ≫ = no inhibition; read-out: PARP2 IC50
T3 construct: made in house
T3 sequence (Q9UGN5 whole entry): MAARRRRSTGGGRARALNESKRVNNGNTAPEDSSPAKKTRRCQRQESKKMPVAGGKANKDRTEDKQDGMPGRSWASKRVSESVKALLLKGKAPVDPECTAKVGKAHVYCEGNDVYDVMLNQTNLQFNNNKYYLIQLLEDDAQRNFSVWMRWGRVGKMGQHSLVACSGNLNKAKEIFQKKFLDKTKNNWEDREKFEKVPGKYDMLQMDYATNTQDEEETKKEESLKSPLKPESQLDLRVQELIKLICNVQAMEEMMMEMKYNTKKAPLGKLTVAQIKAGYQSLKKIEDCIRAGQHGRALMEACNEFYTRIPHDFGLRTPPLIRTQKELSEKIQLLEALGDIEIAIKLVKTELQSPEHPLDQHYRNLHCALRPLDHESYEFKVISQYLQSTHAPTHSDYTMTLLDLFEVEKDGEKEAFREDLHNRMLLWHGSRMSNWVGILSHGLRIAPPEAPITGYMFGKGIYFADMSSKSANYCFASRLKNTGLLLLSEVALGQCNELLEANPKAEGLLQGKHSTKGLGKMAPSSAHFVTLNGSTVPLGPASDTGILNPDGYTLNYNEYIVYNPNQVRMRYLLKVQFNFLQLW

[8] = molecular target: T4, TNKS2 (Homo sapiens, UniProt Q9H2K2); assay: biochemical; settings: read-out: TNKS2 IC50; > = less than 50% inhibition at highest concentration
T4 sequence (Q9H2K2 1-1166): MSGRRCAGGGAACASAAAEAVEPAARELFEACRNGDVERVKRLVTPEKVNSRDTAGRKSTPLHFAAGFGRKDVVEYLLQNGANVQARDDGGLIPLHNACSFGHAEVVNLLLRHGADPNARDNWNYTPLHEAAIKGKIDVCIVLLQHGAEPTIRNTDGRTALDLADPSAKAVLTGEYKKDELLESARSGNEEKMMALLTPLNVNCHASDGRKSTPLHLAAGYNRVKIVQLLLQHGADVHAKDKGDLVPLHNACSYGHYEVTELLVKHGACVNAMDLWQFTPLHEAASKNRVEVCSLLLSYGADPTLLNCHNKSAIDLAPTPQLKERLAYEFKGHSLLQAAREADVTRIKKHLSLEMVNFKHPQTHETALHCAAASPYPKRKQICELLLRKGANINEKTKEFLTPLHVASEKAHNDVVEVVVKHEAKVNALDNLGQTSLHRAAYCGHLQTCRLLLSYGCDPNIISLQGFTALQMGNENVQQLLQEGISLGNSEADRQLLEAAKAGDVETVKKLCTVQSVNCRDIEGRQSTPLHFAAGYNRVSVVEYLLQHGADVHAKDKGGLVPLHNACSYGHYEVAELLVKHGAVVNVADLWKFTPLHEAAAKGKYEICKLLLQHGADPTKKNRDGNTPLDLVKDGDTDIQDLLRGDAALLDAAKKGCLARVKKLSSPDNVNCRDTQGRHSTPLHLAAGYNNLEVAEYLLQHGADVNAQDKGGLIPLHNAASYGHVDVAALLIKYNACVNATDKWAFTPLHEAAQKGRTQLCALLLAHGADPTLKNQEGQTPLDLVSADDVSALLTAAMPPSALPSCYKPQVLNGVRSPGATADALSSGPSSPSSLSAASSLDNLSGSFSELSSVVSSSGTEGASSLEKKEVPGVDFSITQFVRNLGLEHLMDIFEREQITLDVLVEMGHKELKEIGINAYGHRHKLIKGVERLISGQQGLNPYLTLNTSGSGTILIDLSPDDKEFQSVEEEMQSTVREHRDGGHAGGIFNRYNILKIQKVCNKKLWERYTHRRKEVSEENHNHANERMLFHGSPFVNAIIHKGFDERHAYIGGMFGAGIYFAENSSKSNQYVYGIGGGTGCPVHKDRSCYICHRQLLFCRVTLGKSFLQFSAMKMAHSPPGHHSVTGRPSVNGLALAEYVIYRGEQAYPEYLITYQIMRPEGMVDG
Procedure: The proteins used in Tables 1–3 were produced as described earlier. Dockerin constructs to allow enhanced activity assays for mono-ARTs (Table 4) were produced in Escherichia coli with an N-terminal maltose binding protein (MBP) and a C-terminal dockerin domain from Hungateiclostridium thermocellum Cel48s as described recently.[47]
Inhibition experiments were performed using a homogenous assay measuring NAD+ consumption.[80]−[82] Reactions were carried out in quadruplicate, and IC50 curves were fitted using sigmoidal dose response curve (four variables) in GraphPad Prism version 8.02. […] Assay conditions for PARP2, TNKS2, PARP10, and PARP15 (Tables 1–3) were recently reported.[44] The conditions for the proximity-enhanced mono-ART assays (Table 4) were also reported recently.[47] PARP6 (400 nM) inhibition was measured using the standard buffer (50 mM sodium phosphate pH 7.0) for the enhanced activity assay using 500 nM NAD^+ and 18 h incubation in r.t..

[9] = tested on: TNKS2; settings: Figure 1 ref 19; cited from earlier work
[10] = tested on: PARP11; settings: Figure 1 ref 42; cited from earlier work
[11] = tested on: PARP10; settings: Figure 1 ref 35; cited from earlier work
[12] = standard assay (Tables 1-3), * value limited by the protein concentration used, > less than 50% inhibition, ≫ no inhibition at the concentration, read-out: PARP15 IC50

SMILES: O=c1[nH]nc2c3c(cccc13)N=C(CN1Cc3ccccc3C1)N2 [E7449]
IC50 [1]: 0.05 µM

SMILES: CCOc1ccc(-c2nnc([C@H]3C[C@H](NC(=O)c4cccc5c4NCCN5)C3)n2-c2ccccc2F)nc1 [OM-153]
IC50 [9]: 0.002 µM

SMILES: CC#Cc1ccc2c(=O)[nH]c(CSc3ncccn3)nc2c1C [ITK7]
IC50 [10]: 0.014 µM

SMILES: NC(=O)c1ccc(OCC2CCC2)cc1 [OUL238]
IC50 [11]: 0.29 µM

More lines, main results first:

inhibition of auto-MARylation of overexpressed PARP10 in cells [2]: did not observe a MAR-signal
SMILES: NC(=O)c1ccc(Oc2ccc(C(N)=O)cc2)cc1 [OUL35, reference compound]

IC50 [4, 12]: 7.9 µM
IC50 [5]: > 10 µM
SMILES: COc1ccc(OC)c2c1sc1nnc(NC(=O)c3ccc(Cl)cc3)n12 [Compound 29]

IC50 [4]: > 10 µM
IC50 [5]: > 10 µM
SMILES: COc1ccc(OC)c2c1sc1nnc(SC)n12 [Compound 28]

IC50 [7]: 4.5 µM
IC50 [8]: 9.5 µM
SMILES: CC(C)c1ccc2c(c1)sc1nncn12 [Compound 6, 7-Isopropyl[1,2,4]triazolo[3,4-b][1,3]benzothiazole]
cell toxicity (WST-1) [6]: toxic in a dose-dependent manner

IC50 [7]: 0.24 µM
IC50 [8]: 3.1 µM
SMILES: Oc1ccc(O)c2c1sc1nncn12 [Compound 18, [1,2,4]Triazolo[3,4-b][1,3]benzothiazol-5,8-diol]
cell toxicity (WST-1) [6]: toxic in a dose-dependent manner

IC50 [4, 12]: > 10 µM
IC50 ([5]; standard assay (Tables 1-3), * value limited by the protein concentration used, > less than 50% inhibition, ≫ no inhibition at the concentration, read-out: PARP10 IC50): > 10 µM
IC50 [7]: 5.3 µM
IC50 [8]: 2.5 µM
SMILES: c1ccc2c(c1)sc1nncn12 [Compound 2]

Reference: publication PMC9884089 (Journal of Medicinal Chemistry, 2023)
